Measured values published in patent US9309179B2 (FAB PHARMA S.A.S., priority 2006, dated 2016).
≈ marks a conversion by molar mass, not a printed value. Structures can show the parent of a compound that is named as a salt. Where two headings read alike, the source gives them in different places.

Legend:
[1] = target: T1, recombinant E. coli FabI enzyme (Escherichia coli, UniProt P0AEK4); assay: FabI inhibition, fluorescence-based NADH assay; format: biochemical
T1 construct: 6-His (C); made in house; host or cells: prokaryotic expression vector
Experimental: Compound inhibitory activity of FabI enzyme is measured in vitro by the IC50 determination using a fluorescent based assay.
The protein FabI from E. coli is prepared and purified using standard methods for recombinant protein expression after cloning of the gene in a prokaryotic expression vector.
The biochemical activity of the FabI enzyme is assessed using the following method.
The assay buffer “AB” contains 50 mM Hepes pH7.5, 100 μM Dithiothreitol, 0.006% Triton-X100. The following components are added in a black polystyrene Costar plate up to a final volume of 55 μL: 1.5 μL DMSO, or inhibitor dissolved in DMSO and 53.5 μL of a FabI/NADH/NAD+ mixture in AB. After 60 min of pre-incubation at room temperature, the reaction is started by addition of 5 μL of Crotonoyl-CoA to a final volume of 60 μL. This reaction mixture is then composed of 40 nM FabI (produced in house from E. coli, C-terminal 6-His tagged), 20 μM NADH (Biochemika), 10 μM NAD+ (Biochemika), 50 μM Crotonoyl-CoA (Biochemika) and compound at defined concentration. Fluorescence intensity of NADH (lex=360 nm, lem=520 nm) is measured immediately after Crotonoyl-CoA addition, and 2 hours later by a Fluostar Optima (BMG). Enzyme activity is proportional to the signal decrease from which inhibition percentages are derived. For IC50 determinations, the inhibitor is tested at 6 to 10 different concentrations, and the related inhibitions are fitted to a classical langmuir equilibrium model using XLFIT (IDBS).
In Vitro Inhibition of Recombinant E. coli FabI Enzyme by Selected Compounds of Formula (I).

E. coli CIP 76.24 = assay: MIC, broth microdilution; format: cell-based; conditions: Escherichia coli, read-out: MIC E. coli CIP 76.24
Experimental: (§1) The compounds of the present invention are useful antibacterial agents having a selective spectrum of activity in vitro against standard bacterial strains which are used to screen for activity against pathogenic bacteria. […] The activity is presented as Minimum Inhibitory Concentration (MIC) expressed in μg/ml.
(§2) Whole-cell antimicrobial activity was determined by broth microdilution method in microtiterplates. The compound was tested in serial 4-fold dilutions ranging from 0.06 to 64 mcg/mL. Test organisms were selected from the following laboratory strains: Staphylococcus aureus CIP 76.25, Staphylococcus aureus BAA39 MDR, Staphylococcus aureus NEM 14157 PeniR, Staphylococcus aureus CIP 54.146, Escherichia coli CIP 76.24. Bacteria were tested in Tryptic Soy (TS) or Mueller Hinton (MH) broth using an inoculum of 10^4 to 10^6 UFC/mL incubated at 37° C. for 20 h.
(§3) The minimum inhibitory concentration (MIC) was determined as the lowest concentration of compound at which no visible bacteria growth is observed (90% inhibition of absorbance of at […].)

S. aureus CIP 76.25 = assay: MIC, broth microdilution; format: cell-based; conditions: Staphylococcus aureus, read-out: MIC S. aureus CIP 76.25
Experimental: as §1, §2, §3

S. aureus BAA39MDR = assay: MIC, broth microdilution; format: cell-based; conditions: Staphylococcus aureus, 20 h, read-out: MIC S. aureus BAA39MDR
Experimental: as §1, §2, §3

S. aureus NEM14157 = assay: MIC, broth microdilution; format: cell-based; conditions: Staphylococcus aureus, read-out: MIC S. aureus NEM14157
Experimental: as §1, §2, §3

[2] = recombinant E. coli FabI 40 nM, 60 min pre-incubation, NADH fluorescence, read-out: IC50
[3] = CIP76, broth microdilution, 37° C., 20 h
[4] = NEM14157, broth microdilution, 37° C., 20 h

T1 sequence (P0AEK4 whole entry): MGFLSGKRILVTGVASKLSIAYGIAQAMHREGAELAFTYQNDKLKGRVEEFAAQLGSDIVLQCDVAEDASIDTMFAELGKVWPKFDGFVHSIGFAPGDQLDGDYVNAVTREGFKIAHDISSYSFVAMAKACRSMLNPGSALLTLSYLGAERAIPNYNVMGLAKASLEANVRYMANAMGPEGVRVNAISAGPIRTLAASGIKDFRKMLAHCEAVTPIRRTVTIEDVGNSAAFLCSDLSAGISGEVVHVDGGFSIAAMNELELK

Structure (SMILES) | MIC (E. coli CIP 76.24; [3]) [µg/mL] | MIC (S. aureus CIP 76.25; [3]) [µg/mL] | MIC (S. aureus BAA39MDR; broth microdilution, 37° C.) [µg/mL] | MIC (S. aureus NEM14157; [4]) [µg/mL] | further results
CCc1ccc(Oc2ccc(C(C)=O)cc2F)c(OC(=O)CN)c1 [Example 85, acetate hydrochloride] | – | – | – | – | IC50 [1, 2]: 110 nM; MIC (E. coli CIP 76.24; CIP76, 20 h): 1 µg/mL; MIC (S. aureus CIP 76.25; CIP76, 20 h): 0.062 µg/mL
CCc1ccc(Oc2ccc(NS(=O)(=O)C3CC3)cc2F)c(O)c1 [Example 52, N-[4-(4-ethyl-2-hydroxyphenoxy)-3-fluorophenyl]cyclopropane sulfonamide] | 16 (≈ 45.5 µM) | 1 (≈ 2.85 µM) | – | – | –
Oc1cc(Cn2cncn2)ccc1Oc1cccc(F)n1 [Example 32, 2-[(6-fluoropyridin-2-yl)oxy]-5-(1H-1,2,4-triazol-1-ylmethyl)phenol] | 16 (≈ 55.9 µM) | 4 (≈ 14 µM) | – | – | –
CCc1cc(O)c(Oc2ccc(N)cc2)cc1F [Example 62, 2-(4-aminophenoxy)-5-ethyl-4-fluorophenol] | 4 (≈ 16.2 µM) | 0.25 (≈ 1.01 µM) | – | – | –
CCc1ccc(Oc2ccc(S(C)(=O)=O)cc2F)c(O)c1 [Example 64, 5-ethyl-2-[2-fluoro-4-(methylsulfonyl)phenoxy]phenol] | 1 (≈ 3.22 µM) | 0.25 (≈ 0.806 µM) | 0.062 (≈ 0.2 µM) | 0.062 (≈ 0.2 µM) | IC50 [1]: 130 nM
CCc1ccc(Oc2ccc(S(=O)(=O)NCCO)cc2F)c(O)c1 [Example 67, 4-(4-ethyl-2-hydroxyphenoxy)-3-fluoro-N-(2-hydroxyethyl)benzenesulfonamide] | 16 (≈ 45 µM) | 0.25 (≈ 0.703 µM) | – | – | –
CCCc1ccc(Oc2cccc(N)n2)c(O)c1 [Example 7, 2-[(6-aminopyridin-2-yl)oxy]-5-propylphenol] | > 16 | 2 (≈ 8.19 µM) | – | – | –
CCCNc1ccc(Oc2ccc(CC)cc2O)c(F)c1 [Example 82, 5-ethyl-2-[2-fluoro-4-(propylamino)phenoxy]phenol] | 16 (≈ 55.3 µM) | 0.25 (≈ 0.864 µM) | – | – | –
CCc1ccc(Oc2cccc(F)n2)c(O)c1 [Example 3, 5-ethyl-2-[(6-fluoropyridin-2-yl)oxy]phenol] | 4 (≈ 17.1 µM) | 0.25 (≈ 1.07 µM) | 0.25 (≈ 1.07 µM) | 0.25 (≈ 1.07 µM) | –
CCCc1ccc(Oc2cccc(F)n2)c(O)c1 [Example 5, 2-[(6-fluoropyridin-2-yl)oxy]-5-propylphenol] | 4 (≈ 16.2 µM) | 0.25 (≈ 1.01 µM) | 0.25 (≈ 1.01 µM) | 0.25 (≈ 1.01 µM) | IC50 [1, 2]: 970 nM
CCc1ccc(Oc2ccc(S(C)(=O)=O)cc2)c(O)c1 [Example 47, 5-ethyl-2-[4-(methylsulfonyl)phenoxy]phenol] | 16 (≈ 54.7 µM) | 0.25 (≈ 0.855 µM) | – | – | –
CCc1ccc(Oc2ccccc2N)c(O)c1 [Example 34, 2-(2-aminophenoxy)-5-ethylphenol] | 1 (≈ 4.36 µM) | 0.25 (≈ 1.09 µM) | 0.25 (≈ 1.09 µM) | 0.25 (≈ 1.09 µM) | –
CCc1ccc(Oc2ccc(S(N)(=O)=O)cc2F)c(O)c1 [Example 65, 4-(4-ethyl-2-hydroxyphenoxy)-3-fluorobenzene sulfonamide] | 1 (≈ 3.21 µM) | 0.25 (≈ 0.803 µM) | – | – | –
CCc1ccc(Oc2ccc(NCCCNS(C)(=O)=O)cc2F)c(O)c1 [Example 79, N-methanesulfonyl-N-1-[4-(4-ethyl-2-hydroxyphenoxy)-3-fluorophenyl]propan-1,3-diamine] | 16 (≈ 41.8 µM) | 0.25 (≈ 0.654 µM) | 0.25 (≈ 0.654 µM) | 0.25 (≈ 0.654 µM) | –
CCc1ccc(Oc2ccc(S(=O)(=O)NCCNC(C)=O)cc2F)c(O)c1 [Example 70, N-{2-[4-(4-Ethyl-2-hydroxy-phenoxy)-3-fluoro-benzenesulfonylamino]-ethyl}-acetamide] | 16 (≈ 40.4 µM) | 0.25 (≈ 0.631 µM) | – | – | –
CCCc1ccc(Oc2nc(Cl)ccc2N)c(O)c1 [Example 1, 2-[(3-amino-6-chloropyridin-2-yl)oxy]-5-propylphenol] | 16 (≈ 57.4 µM) | 1 (≈ 3.59 µM) | 1 (≈ 3.59 µM) | 0.25 (≈ 0.897 µM) | –
CCc1ccc(Oc2ccc(C(=O)CCCO)cc2)c(O)c1 [Example 86, 1-[4-(4-ethyl-2-hydroxyphenoxy)phenyl]-4-hydroxy butan-1-one] | 4 (≈ 13.3 µM) | 0.062 (≈ 0.206 µM) | 0.062 (≈ 0.206 µM) | 0.062 (≈ 0.206 µM) | –
CCCc1ccc(Oc2cc(F)cc(F)n2)c(O)c1 [Example 25A, 2-[(4,6-difluoropyridin-2-yl)oxy]-5-propylphenol] | 16 (≈ 60.3 µM) | 0.25 (≈ 0.942 µM) | – | – | –
CCc1ccc(Oc2ccc(OCCCC(=O)O)cc2F)c(O)c1 [Example 74, 4-[4-(4-Ethyl-2-hydroxy-phenoxy)-3-fluoro-phenoxy]-butyric acid] | 4 (≈ 12 µM) | 0.062 (≈ 0.185 µM) | 0.062 (≈ 0.185 µM) | 0.062 (≈ 0.185 µM) | –
CCCc1ccc(Oc2cccc(Cl)n2)c(O)c1 [Example 6, 2-[(6-chloropyridin-2-yl)oxy]-5-propylphenol] | 16 (≈ 60.7 µM) | 1 (≈ 3.79 µM) | 1 (≈ 3.79 µM) | 1 (≈ 3.79 µM) | –
CCCc1ccc(Oc2cccnc2N)c(O)c1 [Example 55, 2-(2-Aminopyridin-3-yloxy)-5-propylphenol] | 1 (≈ 4.09 µM) | 0.25 (≈ 1.02 µM) | – | – | IC50 [1]: 92 nM
CCc1ccc(Oc2cc(F)ccc2N)c(O)c1 [Example 50, 2-(2-amino-5-fluorophenoxy)-5-ethylphenol] | – | – | – | – | IC50 [1, 2]: 300 nM
Oc1cc(C(F)=C(F)F)ccc1Oc1cccc(F)n1 [Example 28, 2-[(6-fluoropyridin-2-yl)oxy]-5-(trifluorovinyl) phenol] | – | – | – | – | IC50 [1, 2]: 850 nM
CCc1ccc(Oc2ccc(OCCCN3C(=O)c4ccccc4C3=O)cc2F)c(O)c1 [Example 38, 2-{3-[4-(4-Ethyl-2-hydroxy-phenoxy)-3-fluoro-phenoxy]-propyl}-isoindole-1,3-dione] | 4 (≈ 9.19 µM) | 0.062 (≈ 0.142 µM) | 0.25 (≈ 0.574 µM) | 1 (≈ 2.3 µM) | –
CCc1cc(O)c(Oc2cccc(F)n2)cc1F [Example 57] | 4 (≈ 15.9 µM) | 0.25 (≈ 0.995 µM) | – | – | IC50 [1]: 1100 nM
CCc1ccc(Oc2ccc(NCCO)cc2F)c(O)c1 [Example 81, 5-Ethyl-2-[2-fluoro-4-(2-hydroxyethylamino)-phenoxy]phenol] | 4 (≈ 13.7 µM) | 0.25 (≈ 0.858 µM) | – | – | –
CCc1ccc(Oc2ccc(NCc3cccnc3)cc2F)c(O)c1 [Example 66, 5-ethyl-2-{2-fluoro-4-[(pyridin-3-ylmethyl)amino]phenoxy}phenol] | 16 (≈ 47.3 µM) | 0.25 (≈ 0.739 µM) | – | – | –
Oc1cc(Cl)ccc1Oc1ccc(Cl)cc1Cl [Triclosan, 5-chloro-2-(2,4-dichloro-phenoxy)-phenol, reference compound] | – | – | – | – | MIC (E. coli CIP 76.24; CIP76, 20 h): 0.25 µg/mL (≈ 0.863 µM); MIC (S. aureus CIP 76.25; CIP76, 20 h): 0.125 µg/mL (≈ 0.432 µM)
CCc1ccc(Oc2ccc(OCCCN)cc2F)c(O)c1 [Example 39, 2-[4-(3-aminopropoxy)-2-fluorophenoxy]-5-ethyl phenol] | – | – | – | – | MIC (E. coli CIP 76.24; CIP76, 20 h): 16 µg/mL (≈ 52.4 µM); MIC (S. aureus BAA39MDR): 1 µg/mL (≈ 3.27 µM); MIC (S. aureus NEM14157; NEM14157, 20 h): 1 µg/mL (≈ 3.27 µM); MIC (S. aureus CIP 76.25; CIP76, 20 h): 1 µg/mL (≈ 3.27 µM)
